The term inhibition denotes the drop in the measured response relative to a control, in per cent.

In patent publication US8765773B2, “Substituted hydroxamic acids and uses thereof” (Millennium Pharmaceuticals, Inc., priority 2010, dated 2014) one finds inhibition data, which are given here for 30 compounds.

The target of the assay is T1, purified human HDAC6 (Homo sapiens, UniProt Q9UBN7).
T1 construct: purchased BPS Bioscience 5006
T1 sequence (Q9UBN7 1-1215): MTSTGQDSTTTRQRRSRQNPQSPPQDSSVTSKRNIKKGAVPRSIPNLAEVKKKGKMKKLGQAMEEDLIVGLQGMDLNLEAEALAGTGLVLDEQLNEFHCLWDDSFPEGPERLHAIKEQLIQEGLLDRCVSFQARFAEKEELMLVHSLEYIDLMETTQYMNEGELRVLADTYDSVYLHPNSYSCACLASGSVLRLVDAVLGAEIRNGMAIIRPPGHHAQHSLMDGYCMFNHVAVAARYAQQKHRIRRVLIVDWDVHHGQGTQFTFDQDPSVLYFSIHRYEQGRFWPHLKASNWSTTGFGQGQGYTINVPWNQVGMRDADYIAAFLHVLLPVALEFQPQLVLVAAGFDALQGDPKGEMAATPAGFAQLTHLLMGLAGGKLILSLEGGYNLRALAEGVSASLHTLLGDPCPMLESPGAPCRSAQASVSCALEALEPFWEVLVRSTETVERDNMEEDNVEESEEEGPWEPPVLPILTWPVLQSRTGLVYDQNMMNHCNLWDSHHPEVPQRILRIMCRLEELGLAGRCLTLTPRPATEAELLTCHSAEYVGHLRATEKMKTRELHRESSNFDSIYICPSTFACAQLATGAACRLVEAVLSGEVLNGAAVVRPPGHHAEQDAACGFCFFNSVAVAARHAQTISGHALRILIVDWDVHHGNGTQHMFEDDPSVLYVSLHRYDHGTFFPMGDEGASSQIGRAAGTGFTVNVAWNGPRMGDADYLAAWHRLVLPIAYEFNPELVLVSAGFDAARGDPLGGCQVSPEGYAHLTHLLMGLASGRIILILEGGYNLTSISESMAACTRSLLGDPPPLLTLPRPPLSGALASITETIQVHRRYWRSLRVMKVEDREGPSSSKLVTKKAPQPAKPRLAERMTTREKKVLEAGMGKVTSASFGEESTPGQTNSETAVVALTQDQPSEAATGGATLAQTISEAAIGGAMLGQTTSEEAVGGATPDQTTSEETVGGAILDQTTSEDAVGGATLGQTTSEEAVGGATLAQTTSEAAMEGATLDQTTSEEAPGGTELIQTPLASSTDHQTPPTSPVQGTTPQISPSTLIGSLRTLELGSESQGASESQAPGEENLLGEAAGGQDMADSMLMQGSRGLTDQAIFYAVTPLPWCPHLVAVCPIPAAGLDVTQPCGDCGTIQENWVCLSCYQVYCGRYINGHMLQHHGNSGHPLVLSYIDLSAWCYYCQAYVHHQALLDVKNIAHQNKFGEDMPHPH
In words: HDAC6 Enzyme Assay. The note with it: read-out: Percent Inhibition; for inhibition at 0.412 µM: compound concentration 0.412 μM; for inhibition at 0.37 µM: compound concentration 0.37 μM. In kind it is biochemical. The gist of the method:
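Purified human HDAC6 incubated 1 h at 30° C with Ac-Arg-Gly-Lys(Ac)-AMC peptide plus compound or DMSO; stopped with trichostatin A. Deacetylated product trypsin-digested, released AMC read by fluorescence (Ex 340/Em 460 nm). Percent inhibition at one concentration or IC50 from curves relative to DMSO controls.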

With `O=C(NO)c1ccc2c(=O)[nH]c(COc3cccc(C(F)(F)F)c3)nc2c1` [Compound I-110, N-hydroxy-4-oxo-2-{[3-(trifluoromethyl)phenoxy]methyl}-3,4-dihydroquinazoline-7-carboxamide], the inhibition at 0.412 µM came out at 76%.
Take `O=C(NO)c1ccc2ncn(Cc3cccc(F)c3)c(=O)c2c1` [Compound I-111, 3-(3-fluorobenzyl)-N-hydroxy-4-oxo-3,4-dihydroquinazoline-6-carboxamide]: the inhibition at 0.412 µM came to 93.5%.
Same read-out and setting: as for `CC1(C)CCC(C)(C)c2cc(Cn3cnc4ccc(C(=O)NO)cc4c3=O)ccc21` [Compound I-112, N-hydroxy-4-oxo-3-[(5,5,8,8-tetramethyl-5,6,7,8-tetrahydronaphthalen-2-yl)methyl]-3,4-dihydroquinazoline-6-carboxamide], the figure is 95.2%; as for `O=C(NO)c1ccc2ccn(CCNc3ccc(Cl)cc3)c(=O)c2c1` [Compound I-113, 2-{2-[(4-chlorophenyl)amino]ethyl}-N-hydroxy-1-oxo-1,2-dihydroisoquinoline-7-carboxamide], 95.6%.
Turning to `O=C(NO)c1ccc2ncn(Cc3cccc(N4CCOCC4)c3)c(=O)c2c1` [Compound I-114, N-hydroxy-3-(3-morpholin-4-ylbenzyl)-4-oxo-3,4-dihydroquinazoline-6-carboxamide], the inhibition at 0.37 µM was 93.8%.
In the case of `O=C(NO)c1ccc2ncn(Cc3ccc(F)cc3)c(=O)c2c1` [Compound I-115, 3-(4-fluorobenzyl)-N-hydroxy-4-oxo-3,4-dihydroquinazoline-6-carboxamide], the inhibition at 0.412 µM stood at 90.2%.
The same measure, in the same setting: in the case of `O=C(NO)c1ccc2ccn(CCCOc3ccc(OCc4ccccc4)cc3)c(=O)c2c1` [Compound I-116, 2-{3-[4-(benzyloxy)phenoxy]propyl}-N-hydroxy-1-oxo-1,2-dihydroisoquinoline-7-carboxamide] it was 80.2%; in that of `O=C(NO)c1ccc2ccn(C3CCCCCC3)c(=O)c2c1` [Compound I-117, 2-cycloheptyl-N-hydroxy-1-oxo-1,2-dihydroisoquinoline-7-carboxamide], 93.3%.
Take `O=C(NO)c1ccc2ccn(CCCc3ccncc3)c(=O)c2c1` [Compound I-118, N-hydroxy-1-oxo-2-(3-pyridin-4-ylpropyl)-1,2-dihydroisoquinoline-7-carboxamide]: the inhibition at 0.412 µM worked out at 93.3%.
The same measure, in the same setting: in the case of `O=C(NO)c1ccc2ccn(Cc3cc(F)cc(F)c3)c(=O)c2c1` [Compound I-119, 2-(3,5-difluorobenzyl)-N-hydroxy-1-oxo-1,2-dihydroisoquinoline-7-carboxamide] it was 95.5%; in that of `Cc1cccc(Cn2ccc3ccc(C(=O)NO)cc3c2=O)c1` [Compound I-120, N-hydroxy-2-(3-methylbenzyl)-1-oxo-1,2-dihydroisoquinoline-7-carboxamide], 94.8%.
Same read-out and setting: in the case of `CC(C)n1cnc2ccc(C(=O)NO)cc2c1=O` [Compound I-121, N-hydroxy-3-isopropyl-4-oxo-3,4-dihydroquinazoline-6-carboxamide] it was 71.9%; in that of `O=C(NO)c1ccc2ccn(Cc3ccccc3F)c(=O)c2c1` [Compound I-122, 2-(2-fluorobenzyl)-N-hydroxy-1-oxo-1,2-dihydroisoquinoline-7-carboxamide], 94.6%.
Still for that read-out and setting: as for `O=C(NO)c1ccc2[nH]c(=O)n(-c3ccccc3)c(=O)c2c1` [Compound I-123, N-hydroxy-2,4-dioxo-3-phenyl-1,2,3,4-tetrahydroquinazoline-6-carboxamide], the figure is 71.7%.
Take `O=C(NO)c1ccc2ncn(Cc3cccc(-c4ccccc4C(F)(F)F)c3)c(=O)c2c1` [Compound I-124, N-hydroxy-4-oxo-3-{[2′-(trifluoromethyl)biphenyl-3-yl]methyl}-3,4-dihydroquinazoline-6-carboxamide]: the inhibition at 0.37 µM was found to be 91.4%.
Regarding `O=C(NO)c1ccc2ncn(CCc3cccc(N4CCOCC4)c3)c(=O)c2c1` [Compound I-125, N-hydroxy-3-[2-(3-morpholin-4-ylphenyl)ethyl]-4-oxo-3,4-dihydroquinazoline-6-carboxamide], the inhibition at 0.37 µM was found to be 88.2%.
Same read-out and setting: as for `O=C(NO)c1ccc2ncn(Cc3cccc(-c4cccc(C(=O)NC5CC5)c4)c3)c(=O)c2c1` [Compound I-126, 3-({3′-[(cyclopropylamino)carbonyl]biphenyl-3-yl}methyl)-N-hydroxy-4-oxo-3,4-dihydroquinazoline-6-carboxamide], the figure is 95.6%.
As for `O=C(NO)c1ccc2ncn(Cc3cccc(Cl)c3)c(=O)c2c1` [Compound I-127, 3-(3-chlorobenzyl)-N-hydroxy-4-oxo-3,4-dihydroquinazoline-6-carboxamide], the inhibition at 0.412 µM was 96.1%.
The same measure, in the same setting: in the case of `O=C(NO)c1ccc2ncn(Cc3cccc(-c4ccncc4)c3)c(=O)c2c1` [Compound I-128, N-hydroxy-4-oxo-3-(3-pyridin-4-ylbenzyl)-3,4-dihydroquinazoline-6-carboxamide] it was 95.9%; in that of `O=C(NO)c1ccc2ccn(CCCOc3ccc(-n4ccnc4)cc3)c(=O)c2c1` [Compound I-129, N-hydroxy-2-{3-[4-(1H-imidazol-1-yl)phenoxy]propyl}-1-oxo-1,2-dihydroisoquinoline-7-carboxamide], 96.3%; in that of `CCC(CC)Cn1ccc2ccc(C(=O)NO)cc2c1=O` [Compound I-130, 2-(2-ethylbutyl)-N-hydroxy-1-oxo-1,2-dihydroisoquinoline-7-carboxamide], 93%.
On the same count and under the same terms, as for `O=C(NO)c1ccc2ccn(CCCc3ccc(Cl)cc3)c(=O)c2c1` [Compound I-131, 2-[3-(4-chlorophenyl)propyl]-N-hydroxy-1-oxo-1,2-dihydroisoquinoline-7-carboxamide], the figure is 96.9%; as for `Cc1nc2cc(C(=O)NO)ccc2c(=O)n1C` [Compound I-132, N-hydroxy-2,3-dimethyl-4-oxo-3,4-dihydroquinazoline-7-carboxamide], 59.8%.
Regarding `O=C(NO)c1ccc2c(=O)n(Cc3ccc(C(F)(F)F)cc3)c(-c3cccnc3)nc2c1` [Compound I-133, N-hydroxy-4-oxo-2-pyridin-3-yl-3-[4-(trifluoromethyl)benzyl]-3,4-dihydroquinazoline-7-carboxamide], the inhibition at 0.37 µM was 92.2%.
On the same count and under the same terms, in the case of `O=C(NO)c1ccc2c(=O)n(Cc3ccc(C(F)(F)F)cc3)c(-c3ccc(Cl)cc3)nc2c1` [Compound I-134, 2-(4-chlorophenyl)-N-hydroxy-4-oxo-3-[4-(trifluoromethyl)benzyl]-3,4-dihydroquinazoline-7-carboxamide] it was 88.6%; in that of `CS(=O)(=O)c1cccc(Cn2cnc3ccc(C(=O)NO)cc3c2=O)c1` [Compound I-135, N-hydroxy-3-[3-(methylsulfonyl)benzyl]-4-oxo-3,4-dihydroquinazoline-6-carboxamide], 95.3%; in that of `COc1ncccc1-c1cccc(Cn2cnc3ccc(C(=O)NO)cc3c2=O)c1` [Compound I-136, N-hydroxy-3-[3-(2-methoxypyridin-3-yl)benzyl]-4-oxo-3,4-dihydroquinazoline-6-carboxamide], 94%.
Regarding `O=C(NO)c1ccc2ccn(Cc3cccc(-n4ncc5ccccc54)c3)c(=O)c2c1` [Compound I-137, N-hydroxy-2-[3-(1H-indazol-1-yl)benzyl]-1-oxo-1,2-dihydroisoquinoline-7-carboxamide], the inhibition at 0.37 µM turned out to be 99.5%.
On the same count and under the same terms, as for `Cc1ncc(-c2nc3cc(C(=O)NO)ccc3c(=O)n2Cc2ccc(C(F)(F)F)cc2)n1C` [Compound I-138, 2-(1,2-dimethyl-1H-imidazol-5-yl)-N-hydroxy-4-oxo-3-[4-(trifluoromethyl)benzyl]-3,4-dihydroquinazoline-7-carboxamide], the figure is 80.2%.
Regarding `Cn1c(NCc2ccc(Cl)cc2)nc2cc(C(=O)NO)ccc2c1=O` [Compound I-139, 2-[(4-chlorobenzyl)amino]-N-hydroxy-3-methyl-4-oxo-3,4-dihydroquinazoline-7-carboxamide], the inhibition at 0.412 µM was found to be 78.5%.
